Results published in patent publication EP3495350B1, “COMPOUND INHIBITING FORMATION OF C-MYC/MAX/DNA COMPLEX” (National Cancer Center, priority 2016, dated 2018).

How the values were obtained:
MBT-2 = assay: Cell based assay, cell viability (CellTiter-Glo), MBT-2; conditions: 72 hours, 0 to 2 µM; read-out: cell based assay cell line 1 MBT-2 IC50
Method: (§1) Commercially available bladder cancer cell lines were treated with trypsin-EDTA and seeded in each well of a 96 well plate, followed by incubation for 24 hours. After incubation, candidate compounds were added to each well at a final concentration of 0 to 2 µM. The compound-treated cells were further incubated for 72 hours. Cell viability was measured using an ATP detection method (CellTiter-Glo Luminescent Cell Viability Assay, Promega).
(§2) The selectivity of the compounds of the present disclosure to cancer cells was evaluated in the same manner as described in "2. Cell based assay".

UM-UC-3 = assay: Cell based assay, cell viability (CellTiter-Glo), UM-UC-3; conditions: Homo sapiens, UMUC3; 72 hours, 0 to 2 µM; read-out: cell based assay cell line 4 UM-UC-3 IC50
Method: as §1, §2

253J = assay: Cell based assay, cell viability (CellTiter-Glo), 253J; conditions: Homo sapiens; 72 hours, 0 to 2 µM; read-out: cell based assay cell line 3 253J IC50
Method: as §1, §2

KU19-19 = assay: Cell based assay, cell viability (CellTiter-Glo), KU19-19; conditions: Homo sapiens, KU-19-19; 72 hours, 0 to 2 µM; read-out: cell based assay cell line 2 KU19-19 IC50
Method: as §1, §2

| Structure (SMILES) | IC50 (MBT-2) [nM] | IC50 (UM-UC-3) [nM] | IC50 (253J) [nM] | IC50 (KU19-19) [nM] |
| --- | --- | --- | --- | --- |
| CC(=O)c1c([S+]([O-])c2ccccc2)[nH]c2c(Br)ccc(Cl)c2c1=O (stereo not shown) [Compound 13, 3-acetyl-8-bromo-5-chloro-2-(phenylsulfinyl)quinolin-4(1H)-one] | > 2000 | > 2000 | > 2000 | > 2000 |
| CC(=O)c1c([S+]([O-])Cc2ccc(F)c(Cl)c2)[nH]c2c(Br)ccc(Cl)c2c1=O (stereo not shown) [Compound 31, 3-acetyl-8-bromo-5-chloro-2-((3-chloro-4-fluorobenzyl)sulfinyl)quinolin-4(1H)-one] | 1280 | 1020 | 890 | 1450 |
| CC(=O)c1c([S+]([O-])Cc2cccc(F)c2)[nH]c2c(Br)ccc(Cl)c2c1=O (stereo not shown) [Compound 50, 3-acetyl-8-bromo-5-chloro-2-((3-fluorobenzyl)sulfinyl)quinolin-4(1H)-one] | 1580 | 1260 | 1430 | 1690 |
| CC(=O)c1c([S+]([O-])Cc2cc(F)cc(S(F)(F)(F)(F)F)c2)[nH]c2c(Br)ccc(Cl)c2c1=O (stereo not shown) [Compound 76, 3-acetyl-8-bromo-5-chloro-2-((3-fluoro-5 - (pentafluoro-λ6-sulfanyl)benzyl)sulfinyl)quinolin-4(1H)-one] | 1860 | 1390 | 1240 | 1860 |
| CC(=O)c1c([S+]([O-])Cc2c(F)c(F)c(F)c(F)c2F)[nH]c2c(Br)ccc(Cl)c2c1=O (stereo not shown) [Compound 78, 3-acetyl-8-bromo-5-chloro-2-(((perfluorophenyl)methyl)sulfinyl)quinolin-4(1H)-one] | 1530 | 1390 | 1290 | > 2000 |
| CC(=O)c1c([S+]([O-])Cc2ccc(C#N)s2)[nH]c2c(Br)ccc(Cl)c2c1=O (stereo not shown) [Compound 98, 5-(((3-acetyl-8-bromo-5-chloro-4-oxo-1,4-dihydroquinolin-2-yl)sulfinyl)methyl)thiophene-2-carbonitrile] | 840 | 1520 | 1380 | 1900 |
| CC(=O)c1c([S+]([O-])Cc2cccc(I)c2)[nH]c2c(Br)ccc(Cl)c2c1=O (stereo not shown) [Compound 48, 3-acetyl-8-bromo-5-chloro-2-((3-iodobenzyl)sulfinyl)quinolin-4(1H)-one] | > 2000 | 1820 | > 2000 | > 2000 |
| CC(=O)c1c([S+]([O-])Cc2ccc(C(F)(F)F)cc2)[nH]c2c(Br)ccc(Cl)c2c1=O (stereo not shown) [Compound 70, 3-acetyl-8-bromo-5-chloro-2-((4-(trifluoromethyl)benzyl)sulfinyl)quinolin-4(1H)-one] | 1330 | 1260 | 1040 | 1750 |
| CC(=O)c1c([S+]([O-])C(C)c2ccccc2)[nH]c2c(Br)ccc(Cl)c2c1=O (stereo not shown) [Compound 26, 3-acetyl-8-bromo-5-chloro-2-((1-phenylethyl)sulfinyl)quinolin-4(1H)-one] | > 2000 | > 2000 | > 2000 | > 2000 |
| COc1cc(C[S+]([O-])c2[nH]c3c(Br)ccc(Cl)c3c(=O)c2C(C)=O)cc(OC)c1 (stereo not shown) [Compound 59, 3-acetyl-8-bromo-5-chloro-2-((3,5-dimethoxybenzyl)sulfinyl)quinolin-4(1H)-one] | 1300 | 1370 | 1140 | 1230 |
| CC(=O)c1c([S+]([O-])Cc2ccc(F)cc2F)[nH]c2c(Br)ccc(Cl)c2c1=O (stereo not shown) [Compound 29, 3-acetyl-8-bromo-5-chloro-2-((2,4-difluorobenzyl)sulfinyl)quinolin-4(1H)-one] | 1200 | 1130 | 960 | 1680 |
| CC(=O)c1c([S+]([O-])Cc2ccc(OC(F)(F)F)cc2)[nH]c2c(Br)ccc(Cl)c2c1=O (stereo not shown) [Compound 71, 3-acetyl-8-bromo-5-chloro-2-((4-(trifluoromethoxy)benzyl)sulfinyl)quinolin-4(1H)-one] | 1470 | 1610 | 1110 | 1600 |
| CC(=O)c1c([S+]([O-])Cc2ccc(Cl)cc2)[nH]c2c(Br)ccc(Cl)c2c1=O (stereo not shown) [Compound 11, 3-acetyl-8-bromo-5-chloro-2-((4-chlorobenzyl)sulfinyl)quinolin-4(1H)-one] | > 2000 | 1490 | 1410 | > 2000 |
| CC(=O)c1c([S+]([O-])Cc2cc(C)on2)[nH]c2c(F)ccc(F)c2c1=O (stereo not shown) [Compound 82, 3-acetyl-5,8-difluoro-2-(((5-methylisoxazol-3 - yl)methyl)sulfinyl)quinolin-4(1H)-one] | > 2000 | > 2000 | > 2000 | > 2000 |
| CC(=O)c1c([S+]([O-])Cc2ccc(C#N)cc2)[nH]c2c(Br)ccc(Cl)c2c1=O (stereo not shown) [Compound 73, 4-(((3-acetyl-8-bromo-5-chloro-4-oxo-1,4-dihydroquinolin-2-yl)sulfinyl)methyl)benzonitrile] | 1000 | 1620 | 1340 | 2000 |
| CC(=O)c1c(S(=O)(=O)Cc2ccccc2)[nH]c2c(Br)ccc(Cl)c2c1=O [Compound 34, 3-acetyl-2-(benzylsulfonyl)-8-bromo-5-chloroquinolin-4(1H)-one] | > 2000 | > 2000 | > 2000 | > 2000 |
| Cc1cc(C[S+]([O-])c2[nH]c3c(Cl)ccc(Cl)c3c(=O)c2C(=O)C(C)C)no1 (stereo not shown) [Compound 86, 5,8-dichloro-3-isobutyryl-2-(((5 - methylisoxazol-3-yl)methyl)sulfinyl)quinolin-4(1H)-one] | 810 | 1260 | 1060 | 1410 |
| CC(=O)c1c([S+]([O-])Cc2cc(F)cc(F)c2)[nH]c2c(Br)ccc(Cl)c2c1=O (stereo not shown) [Compound 46, 3-acetyl-8-bromo-5-chloro-2-((3,5-difluorobenzyl)sulfinyl)quinolin-4(1H)-one] | 1840 | 1220 | 1960 | 1800 |
| Cc1cc(C[S+]([O-])c2[nH]c3c(Br)ccc(Cl)c3c(=O)c2C(=O)C(C)C)no1 (stereo not shown) [Compound 95, 8-bromo-5-chloro-3-isobutyryl-2-(((5-methylisoxazol-3-yl)methyl)sulfinyl)quinolin-4(1H)-one] | 800 | 1060 | 770 | 1290 |
| CC(=O)c1c([S+]([O-])Cc2nonc2C)[nH]c2c(Br)ccc(Cl)c2c1=O (stereo not shown) [Compound 106, 3-acetyl-8-bromo-5-chloro-2-(((4-methyl-1,2,5-oxadiazol-3-yl)methyl)sulfinyl)quinolin-4(1H)-one] | > 2000 | > 2000 | > 2000 | > 2000 |
| CC(=O)c1c([S+]([O-])Cc2ccc(SC(F)(F)F)cc2)[nH]c2c(Cl)ccc(Cl)c2c1=O (stereo not shown) [Compound 79, 3-acetyl-5,8-dichloro-2-((4-((trifluoromethyl)thio)benzyl)sulfinyl)quinolin-4(1H)-one] | > 2000 | > 2000 | > 2000 | > 2000 |
| CC(=O)c1c([S+]([O-])Cc2ccccc2C#N)[nH]c2c(Br)ccc(Cl)c2c1=O (stereo not shown) [Compound 58, 2-(((3-acetyl-8-bromo-5-chloro-4-oxo-1,4-dihydroquinolin-2-yl)sulfinyl)methyl)benzonitrile] | 860 | 1220 | 920 | 920 |
| CC(C)C(=O)c1c([S+]([O-])Cc2ccc(SC(F)(F)F)cc2)[nH]c2c(F)ccc(F)c2c1=O (stereo not shown) [Compound 85, 5,8-difluoro-3-isobutyryl-2-((4-((trifluoromethyl)thio)benzyl)sulfinyl)quinolin-4(1H)-one] | > 2000 | > 2000 | > 2000 | > 2000 |
| CC(=O)c1c([S+]([O-])Cc2cccc(S(F)(F)(F)(F)F)c2)[nH]c2c(Br)ccc(Cl)c2c1=O (stereo not shown) [Compound 77, 3-acetyl-8-bromo-5-chloro-2-((3-(pentafluoro-λ6-sulfanyl)benzyl)sulfinyl)quinolin-4(1H)-one] | 1450 | 1180 | 900 | 1380 |
| CC(=O)c1c([S+]([O-])c2ccc(Br)cc2)[nH]c2c(Br)ccc(Cl)c2c1=O (stereo not shown) [Compound 17, 3-acetyl-8-bromo-2-((4-bromophenyl)sulfinyl)-5-chloroquinolin-4(1H)-one] | > 2000 | > 2000 | > 2000 | > 2000 |
| COc1cccc2[nH]c([S+]([O-])Cc3cc(C)on3)c(C(C)=O)c(=O)c12 (stereo not shown) [Compound 94, 3-acetyl-5-methoxy-2-(((5-methylisoxazol-3 - yl)methyl)sulfinyl)quinolin-4(1H)-one] | 1530 | > 2000 | > 2000 | > 2000 |
| CC(=O)c1c([S+]([O-])Cc2c(F)cccc2Cl)[nH]c2c(Br)ccc(Cl)c2c1=O (stereo not shown) [Compound 74, 3-acetyl-8-bromo-5-chloro-2-((2-chloro-6-fluorobenzyl)sulfinyl)quinolin-4(1H)-one] | 1150 | 1540 | 810 | 1640 |
| CC(=O)c1c([S+]([O-])Cc2ccc(I)cc2)[nH]c2c(Cl)ccc(Cl)c2c1=O (stereo not shown) [Compound 83, 3-acetyl-5,8-dichloro-2-((4-iodobenzyl)sulfinyl)quinolin-4(1H)-one] | 1350 | 1310 | 1420 | 1600 |
